Results as given in patent US20220125051A1, “PRE-HARVEST DESICCATION METHOD” (SYNGENTA CROP PROTECTION AG, priority 2019, published 2022).
Like-named read-outs stand apart in the source and are kept apart here.

How the values were obtained:
Assay in all cases: Post-emergence efficacy, Method A
Assay type in all cases: in vivo
[1] = system: Amaranthus palmeri (AMAPA); conditions: Amaranthus palmeri, post-emergence, 312 h; Application Rate 500 g/Ha; evaluated after 13 days; Method A; read-out: Control of weed species after post-emergence application, AMAPA (100=total damage to plant; 0=no damage to plant)
Method: (§1) Seeds of a variety of test species were sown in standard soil in pots. After cultivation for 14 days (post-emergence) under controlled conditions in a glasshouse (at 24/16° C., day/night; 14 hours light; 65% humidity), the plants were sprayed with an aqueous spray solution derived from the dissolution of the technical active ingredient formula (I) in a small amount of acetone and a special solvent and emulsifier mixture referred to as IF50 (11.12% Emulsogen EL360 TM+44.44% N-methylpyrrolidone+44.44% Dowanol DPM glycol ether), to create a 50 g/I solution which was then diluted to required concentration using 0.25% or 1% Empicol ESC70 (Sodium lauryl ether sulphate)+1% ammonium sulphate as diluent. The test plants were then grown in a glasshouse under controlled conditions (at 24/16° C., day/night; 14 hours light; 65% humidity) and watered twice daily. After 13 days the test was evaluated (100=total damage to plant; 0=no damage to plant).
(§2) Ipomoea hederacea (IPOHE), Euphorbia heterophylla (EPHHL), Chenopodium album (CHEAL), Amaranthus palmeri (AMAPA), Lolium perenne (LOLPE), Digitaria sanguinalis (DIGSA), Eleusine indica (ELEIN), Echinochloa crus-galli (ECHCG), Setaria faberi (SETFA)

[2] = system: Chenopodium album (CHEAL); conditions: Chenopodium album, post-emergence, 312 h; Application Rate 500 g/Ha; evaluated after 13 days; Method A; read-out: Control of weed species after post-emergence application, CHEAL (100=total damage to plant; 0=no damage to plant)
Method: as §1, §2

[3] = system: Digitaria sanguinalis (DIGSA); conditions: Digitaria sanguinalis, post-emergence, 312 h; Application Rate 500 g/Ha; evaluated after 13 days; Method A; read-out: Control of weed species after post-emergence application, DIGSA (100=total damage to plant; 0=no damage to plant)
Method: as §1, §2

[4] = system: Echinochloa crus-galli (ECHCG); conditions: Echinochloa crus-galli, post-emergence, 312 h; Application Rate 500 g/Ha; evaluated after 13 days; Method A; read-out: Control of weed species after post-emergence application, ECHCG (100=total damage to plant; 0=no damage to plant)
Method: as §1, §2

Eleusine indica (ELEIN) = conditions: Eleusine indica, post-emergence, 312 h; Application Rate 500 g/Ha; evaluated after 13 days; Method A; read-out: Control of weed species after post-emergence application, ELEIN (100=total damage to plant; 0=no damage to plant)
Method: as §1, §2

[5] = system: Ipomoea hederacea (IPOHE); conditions: Ipomoea hederacea, post-emergence, 312 h, Application Rate 500 g/Ha; evaluated after 13 days; Method A; read-out: Control of weed species after post-emergence application, IPOHE (100=total damage to plant; 0=no damage to plant)
Method: as §1, §2

Lolium perenne (LOLPE) = conditions: Lolium perenne, post-emergence, 312 h, evaluated after 13 days
Method: as §1, §2

Setaria faberi (SETFA) = conditions: Setaria faberi, post-emergence, 312 h; Application Rate 500 g/Ha; evaluated after 13 days; Method A; read-out: Control of weed species after post-emergence application, SETFA (100=total damage to plant; 0=no damage to plant)
Method: as §1, §2

[6] = Application Rate 500 g/Ha, Method A, read-out: Control of weed species after post-emergence application, LOLPE (100=total damage to plant; 0=no damage to plant)

SMILES | pest or weed control at 500 g/ha [1] | pest or weed control at 500 g/ha [2] | pest or weed control at 500 g/ha [3] | pest or weed control at 500 g/ha [4] | pest or weed control at 500 g/ha (Eleusine indica (ELEIN)) | pest or weed control at 500 g/ha [5] | pest or weed control at 500 g/ha (Lolium perenne (LOLPE); [6]) | pest or weed control at 500 g/ha (Setaria faberi (SETFA)) | pest or weed control at 500 g/ha (Lolium perenne (LOLPE); Application rate 500 g/Ha, 100=total damage to plant, 0=no damage to plant, read-out: Control of weed species after post-emergence application, LOLPE)
Cc1cc(-c2cc[n+](CCS(=O)(=O)[O-])nc2)nc(C)n1 [Compound A231] | 100% | 90% | 80% | 50% | 60% | 60% | 60% | 60% | 
CCOP(=O)(O)CCC[n+]1ccc(-c2ncccn2)cn1 [Compound A232] | 100% | 90% | 90% | 100% | 50% | 0% | 20% | 80% | 
O=S(=O)([O-])N1CCCC1C[n+]1ccc(-c2ncccn2)cn1 (centres unmarked) [Compound A222] | 80% | 60% | 90% | 70% | 60% | 70% | 20% | 80% | 
N#Cc1ccc(-c2cc[n+](CCS(=O)(=O)[O-])nc2)nc1 [Compound A169] | 100% | 70% | 50% | 40% | 90% | 40% | 50% | 50% | 
CC(CC[n+]1ccc(-c2ncccn2)cn1)S(=O)(=O)[O-] (centres unmarked) [Compound A185] | 100% | 80% | 30% | 40% | 30% | 30% | 30% | 50% | 
N#Cc1ccc(-c2cc[n+](CCC(=O)O)nc2)nc1 [Compound A176] | 40% | 30% | 30% | 30% | 70% | 40% | 40% | 40% | 
O=C(O)CC[n+]1ccc(-c2ncccn2)cn1 [Compound A125, 3-(4-pyrimidin-2-ylpyridazin-1-ium-1-yl)propanoic acid 2,2,2-trifluoroacetate] |  |  |  |  |  |  |  |  | 90%
Cc1ccc(-c2cc[n+](CCC(=O)O)nc2)nc1 [Compound A199] |  | 40% | 50% | 20% | 10% | 10% | 0% | 30% | 
O=S(=O)([O-])CC(O)C[n+]1ccc(-c2ccncn2)cn1 (centres unmarked) [Compound A224] | 100% | 90% | 80% | 40% | 80% | 80% | 40% | 40% | 
CC(C[n+]1ccc(-c2ccncn2)cn1)C(=O)O (centres unmarked) [Compound A171] | 100% | 80% | 60% | 60% | 80% | 80% | 70% | 60% | 
CCOP(=O)(C[n+]1ccc(-c2ncccn2)cn1)OCC [Compound A230, 1-(diethoxyphosphorylmethyl)-4-pyrimidin-2-yl-pyridazin-1-ium 2,2,2-trifluoroacetate] | 50% | 60% | 70% | 60% | 10% | 20% | 0% | 50% | 
NC(=O)c1ccc(-c2cc[n+](CCCS(=O)(=O)[O-])nc2)nc1 [Compound A183] | 10% | 0% | 30% | 20% | 10% | 20% | 10% | 10% | 
O=P([O-])(O)C[n+]1ccc(-c2ncccn2)cn1 [Compound A205, hydroxy-[(4-pyrimidin-2-ylpyridazin-1-ium-1-yl)methyl]phosphinate] | 80% | 60% | 80% | 60% | 60% | 80% | 40% | 80% | 
OCC[n+]1ccc(-c2ncccn2)cn1 [Compound A195, 2-(4-pyrimidin-2-ylpyridazin-1-ium-1-yl)ethanol 2,2,2-trifluoroacetate] |  | 60% | 20% | 10% | 10% | 20% | 0% |  | 
O=P(O)(O)CCC[n+]1ccc(-c2ncccn2)cn1 [Compound A233] | 100% | 100% | 60% | 60% | 50% | 70% | 20% | 70% | 
CC(CS(=O)(=O)[O-])[n+]1ccc(-c2ncccn2)cn1 (centres unmarked) [Compound A181, 2-(4-pyrimidin-2-ylpyridazin-1-ium-1-yl)propane-1-sulfonate] | 90% | 90% | 80% | 100% | 100% | 80% | 90% | 60% | 
O=C(O)c1ccc(C[n+]2ccc(-c3ncccn3)cn2)cc1 [Compound A228] | 80% | 60% | 20% | 10% | 10% | 60% | 0% | 10% | 
COC(=O)c1ccc(C[n+]2ccc(-c3ncccn3)cn2)cc1 [Compound A229] | 10% | 0% | 20% | 0% | 0% | 10% | 0% | 10% | 
